This assay concerns vancomycin resistant E. faecium (VRE) (ATCC 51559). Description: Antibacterial activity (MIC), modified micro-dilution broth. To be noted: 24 h, read-out: MIC VRE. It counts as cell-based, Vancomycin resistant Enterococcus faecium. (In general: Dilution methods test growth across graded concentrations, often in twofold steps.)

In US9636356B2, “Nanoparticle compositions of antibacterial compounds and other uses thereof” (JAWAHARLAL NEHRU CENTRE FOR ADVANCED SCIENTIFIC RESEARCH, priority 2012, dated 2017) one finds MIC data, which are given here for one compound.

Experimental: E. coli is cultured in Luria Bertani broth (10 g of tryptone, 5 g of yeast extract, and 10 g of NaCl in 1000 mL of sterile distilled water (pH −7) while S. aureus, P. aeruginosa and MRSA are grown in Yeast-dextrose broth (1 g of beef extract, 2 g of yeast extract, 5 g of peptone and 5 g of NaCl in 1000 mL of sterile distilled water). For E. faecium and VRE, Brain Heart Infusion broth (BHI) is used. K. pneumoniae is grown in nutrient media (3 g of beef extract and 5 g of peptone in 1000 mL of sterile distilled water). For solid media 5% agar is used along with above mentioned composition. The bacterial samples are freeze dried and stored at −80° C. 5 μl of these stocks are added to 3 mL of the nutrient broth and the culture is grown for 6 h at 37° C. prior to the experiments.
Antibacterial activity is determined with the slight modifications of standardized protocols. Water-soluble Q-PIBMI derivatives are assayed in a modified micro-dilution broth format. […] Bacteria, to be tested, grown for 6 h in the suitable media containing ˜10^9 cfu/mL (determined by spread plating method), which is then diluted to 10^5 cfu/mL using nutrient media. […] MIC value is determined by taking the average of triplicate O.D. values for each concentration and plotting it against concentration using Origin Pro 8.0 software. […]

In the case of `CN[C@H](CC(C)C)C(=O)N[C@H]1C(=O)N[C@@H](CC(N)=O)C(=O)N[C@H]2C(=O)N[C@H]3C(=O)N[C@H](C(=O)N[C@H](C(=O)O)c4cc(O)cc(O)c4-c4cc3ccc4O)[C@H](O)c3ccc(c(Cl)c3)Oc3cc2cc(c3O[C@@H]2O[C@H](CO)[C@@H](O)[C@H](O)[C@H]2O[C@H]2C[C@](C)(N)[C@H](O)[C@H](C)O2)Oc2ccc(cc2Cl)[C@H]1O` [Vamcomycin], the MIC was above 156 µg/mL.

The MIC is the lowest concentration found to suppress growth.
